ChEMBL document CHEMBL1129179, “Antimicrobial evaluation of 3,1-benzoxazin-4-ones, 3,1-benzothiazin-4-ones, 4-alkoxyquinazolin-2-carbonitriles and N-arylimino-1,2,3-dithiazoles” (1996)
≈ marks a conversion by molar mass, not a printed value. Calls of active or inactive are those of the source. No cut-off for these calls is given here.

Tests used:
Nakaseomyces glabratus [1] = assay: Minimum inhibitory concentration required for antifungal activity against Candida glabrata DSM 6425 strain; format: functional
Candida albicans [2] = assay: Minimum fungicidal concentration required for antifungal activity against Candida albicans ATCC 10231 strain; format: functional
Nakaseomyces glabratus [3] = assay: Minimum fungicidal concentration required for antifungal activity against Candida glabrata DSM 6425 strain; format: functional
Candida tropicalis [4] = assay: Minimum fungicidal concentration required for antifungal activity against Candida tropicalis DSM 1346 strain; format: functional
Candida tropicalis [5] = assay: Minimum inhibitory concentration required for antifungal activity against Candida tropicalis DSM 1346 strain; format: functional
Cryptococcus neoformans [6] = assay: Minimum inhibitory concentration required for antifungal activity against Cryptococcus neoformans DSM 70219 strain; format: functional
Candida albicans [7] = assay: Minimum inhibitory concentration required for antifungal activity against Candida albicans ATCC 10231 strain; format: functional
Cryptococcus neoformans [8] = assay: Minimum fungicidal concentration required for antifungal activity against Cryptococcus neoformans DSM 70219 strain; format: functional
Pichia kudriavzevii [9] = assay: Minimum fungicidal concentration required for antifungal activity against Issatchenkia orientalis DSM 6128 strain; format: functional
Pichia kudriavzevii [10] = assay: Minimum inhibitory concentration required for antifungal activity against Issatchenkia orientalis DSM 6128 strain; format: functional
[11] = Ratio of MFC99/MIC for antifungal activity against Candida albicans ATCC 10231 strain was determined; format: functional
[12] = Ratio of MFC99/MIC for antifungal activity against Candida glabrata DSM 6425 strain was determined; format: functional
[13] = Ratio of MFC99/MIC for antifungal activity against Candida tropicalis DSM 1346 strain was determined; format: functional
[14] = Ratio of MFC99/MIC for antifungal activity against Cryptococcus neoformans DSM 70219 strain was determined; format: functional
[15] = Ratio of MFC99/MIC for antifungal activity against Issatchenkia orientalis DSM 6128 strain was determined; format: functional
Escherichia coli = assay: Antibacterial activity against gram-negative bacteria Escherichia coli ATCC 25922; No effect; format: functional, organism-based
Enterococcus faecalis = assay: Antibacterial activity against gram-positive bacteria Enterococcus faecalis ATCC 29212; No effect; format: functional, organism-based
Klebsiella pneumoniae = assay: Antibacterial activity against gram-negative bacteria K. pneumoniae; No effect; format: functional, organism-based
Listeria monocytogenes = assay: Antibacterial activity against gram-positive bacteria Listeria monocytogenes CIP 82110T; No effect; format: functional, organism-based
Proteus mirabilis = assay: Antibacterial activity against gram-negative bacteria Proteus mirabilis CIP 1031811; No effect; format: functional, organism-based
Pseudomonas aeruginosa = assay: Antibacterial activity against gram-negative bacteria Pseudomonas aeruginosa ATCC 27853; No effect; format: functional, organism-based
Salmonella typhimurium = assay: Antibacterial activity against gram-negative bacteria Salmonella ser. Typhimurium; No effect; format: functional, organism-based; details: Salmonella enterica subsp. enterica serovar Typhimurium
Staphylococcus aureus = assay: Antibacterial activity against gram-positive bacteria Staphylococcus aureus ATCC 9144; No effect; format: functional, organism-based
Streptococcus pyogenes = assay: Antibacterial activity against gram-positive bacteria Streptococcus pyogenes ATCC 19165; No effect; format: functional, organism-based
Salmonella enterica = assay: Antibacterial activity against gram-negative bacteria S. choleraesuis; No effect; format: functional, organism-based

| SMILES | Activity (Escherichia coli) | Activity (Enterococcus faecalis) | Activity (Klebsiella pneumoniae) | Activity (Listeria monocytogenes) | Activity (Proteus mirabilis) | Activity (Pseudomonas aeruginosa) | Activity (Salmonella typhimurium) | Activity (Staphylococcus aureus) | Activity (Streptococcus pyogenes) | Activity (Salmonella enterica) | also measured |
| --- | --- | --- | --- | --- | --- | --- | --- | --- | --- | --- | --- |
| N#Cc1ccccc1/N=c1\ssnc1Cl | – | – | – | – | – | – | – | – | – | – | MIC (Nakaseomyces glabratus [1]): 16 µg/mL (≈ 63.1 µM); MFC99 (Candida albicans [2]): 16 µg/mL (≈ 63.1 µM); MFC99 (Nakaseomyces glabratus [3]): 16 µg/mL (≈ 63.1 µM); MFC99 (Candida tropicalis [4]): 16 µg/mL (≈ 63.1 µM); MIC (Candida tropicalis [5]): 16 µg/mL (≈ 63.1 µM); MIC (Cryptococcus neoformans [6]): 16 µg/mL (≈ 63.1 µM); MIC (Candida albicans [7]): 16 µg/mL (≈ 63.1 µM); MFC99 (Cryptococcus neoformans [8]): 16 µg/mL (≈ 63.1 µM); MFC99 (Pichia kudriavzevii [9]): 16 µg/mL (≈ 63.1 µM); MIC (Pichia kudriavzevii [10]): 16 µg/mL (≈ 63.1 µM); Ratio [11]: 1; Ratio [12]: 1; Ratio [13]: 1; Ratio [14]: 1; Ratio [15]: 1 |
| COc1cc2nc(C#N)oc(=O)c2cc1OC | inactive | inactive | inactive | inactive | inactive | inactive | inactive | inactive | inactive | inactive | – |
| COc1cc2nc(C#N)nc(OC(C)C)c2cc1OC | inactive | inactive | inactive | inactive | inactive | inactive | inactive | inactive | inactive | inactive | – |
| CCSc1nc(C#N)nc2cc(OC)c(OC)cc12 | inactive | inactive | inactive | inactive | inactive | inactive | inactive | inactive | inactive | inactive | – |
| COc1cc2nc(C#N)sc(=O)c2cc1OC | inactive | inactive | inactive | inactive | inactive | inactive | inactive | inactive | inactive | inactive | – |
| N#Cc1nc2ccccc2c(=O)o1 | inactive | inactive | inactive | inactive | inactive | inactive | inactive | inactive | inactive | inactive | – |
| Clc1nss/c1=N\c1ccc2c(c1)OCCO2 | – | – | – | – | – | – | – | – | – | – | MIC (Nakaseomyces glabratus [1]): 16 µg/mL (≈ 55.8 µM); MFC99 (Candida albicans [2]): 48 µg/mL (≈ 167 µM); MFC99 (Nakaseomyces glabratus [3]): 48 µg/mL (≈ 167 µM); MFC99 (Candida tropicalis [4]): >48 µg/mL; MIC (Candida tropicalis [5]): 48 µg/mL (≈ 167 µM); MIC (Cryptococcus neoformans [6]): 16 µg/mL (≈ 55.8 µM); MIC (Candida albicans [7]): 32 µg/mL (≈ 112 µM); MFC99 (Cryptococcus neoformans [8]): 16 µg/mL (≈ 55.8 µM); MFC99 (Pichia kudriavzevii [9]): >48 µg/mL; MIC (Pichia kudriavzevii [10]): 48 µg/mL (≈ 167 µM); Ratio [11]: 1.5; Ratio [12]: 3; Ratio [14]: 1 |
| N#Cc1nc2cc(Cl)ccc2c(=O)s1 | inactive | inactive | inactive | inactive | inactive | inactive | inactive | inactive | inactive | inactive | – |
| N#Cc1nc2ccccc2c(=O)s1 | inactive | inactive | inactive | inactive | inactive | inactive | inactive | inactive | inactive | inactive | – |
| CCOc1nc(C#N)nc2ccccc12 | inactive | inactive | inactive | inactive | inactive | inactive | inactive | inactive | inactive | inactive | – |
| COC(=O)c1cc(OC)c(OC)cc1/N=c1\ssnc1Cl | – | – | – | – | – | – | – | – | – | – | MIC (Nakaseomyces glabratus [1]): 16 µg/mL (≈ 46.1 µM); MFC99 (Candida albicans [2]): 48 µg/mL (≈ 138 µM); MFC99 (Nakaseomyces glabratus [3]): 48 µg/mL (≈ 138 µM); MFC99 (Candida tropicalis [4]): >48 µg/mL; MIC (Candida tropicalis [5]): 48 µg/mL (≈ 138 µM); MIC (Cryptococcus neoformans [6]): 32 µg/mL (≈ 92.3 µM); MIC (Candida albicans [7]): 32 µg/mL (≈ 92.3 µM); MFC99 (Cryptococcus neoformans [8]): 48 µg/mL (≈ 138 µM); MFC99 (Pichia kudriavzevii [9]): 48 µg/mL (≈ 138 µM); MIC (Pichia kudriavzevii [10]): 32 µg/mL (≈ 92.3 µM); Ratio [11]: 1.5; Ratio [12]: 3; Ratio [14]: 1.5; Ratio [15]: 1.5 |
| COc1cc2nc(C#N)nc(OC)c2cc1OC | inactive | inactive | inactive | inactive | inactive | inactive | inactive | inactive | inactive | inactive | – |
| N#Cc1nc2cc(Cl)ccc2c(=O)o1 | inactive | inactive | inactive | inactive | inactive | inactive | inactive | inactive | inactive | inactive | – |
| COc1cc(C#N)c(/N=c2\ssnc2Cl)cc1OC | – | – | – | – | – | – | – | – | – | – | MIC (Nakaseomyces glabratus [1]): 32 µg/mL (≈ 102 µM); MFC99 (Candida albicans [2]): 32 µg/mL (≈ 102 µM); MFC99 (Nakaseomyces glabratus [3]): 48 µg/mL (≈ 153 µM); MFC99 (Candida tropicalis [4]): >48 µg/mL; MIC (Candida tropicalis [5]): 48 µg/mL (≈ 153 µM); MIC (Cryptococcus neoformans [6]): 32 µg/mL (≈ 102 µM); MIC (Candida albicans [7]): 32 µg/mL (≈ 102 µM); MFC99 (Cryptococcus neoformans [8]): 32 µg/mL (≈ 102 µM); MFC99 (Pichia kudriavzevii [9]): 48 µg/mL (≈ 153 µM); MIC (Pichia kudriavzevii [10]): 32 µg/mL (≈ 102 µM); Ratio [11]: 1; Ratio [12]: 1.5; Ratio [14]: 1; Ratio [15]: 1.5 |
| Nc1nc(=O)[nH]cc1F [FLUCYTOSINE] | – | – | – | – | – | – | – | – | – | – | MIC (Nakaseomyces glabratus [1]): 0.05 µg/mL (≈ 0.387 µM); MFC99 (Candida albicans [2]): 4 µg/mL (≈ 31 µM); MFC99 (Nakaseomyces glabratus [3]): 0.25 µg/mL (≈ 1.94 µM); MFC99 (Candida tropicalis [4]): 0.25 µg/mL (≈ 1.94 µM); MIC (Candida tropicalis [5]): 0.1 µg/mL (≈ 0.775 µM); MIC (Cryptococcus neoformans [6]): 2 µg/mL (≈ 15.5 µM); MIC (Candida albicans [7]): 0.13 µg/mL (≈ 1.01 µM); MFC99 (Cryptococcus neoformans [8]): >128 µg/mL; MFC99 (Pichia kudriavzevii [9]): 64 µg/mL (≈ 496 µM); MIC (Pichia kudriavzevii [10]): 16 µg/mL (≈ 124 µM); Ratio [12]: 5; Ratio [13]: 5; Ratio [14]: >64; Ratio [15]: 4 |
| CCOc1nc(C#N)nc2cc(OC)c(OC)cc12 | inactive | inactive | inactive | inactive | inactive | inactive | inactive | inactive | inactive | inactive | – |
| COc1nc(C#N)nc2ccccc12 | inactive | inactive | inactive | inactive | inactive | inactive | inactive | inactive | inactive | inactive | – |
| CCCCOc1nc(C#N)nc2cc(OC)c(OC)cc12 | inactive | inactive | inactive | inactive | inactive | inactive | inactive | inactive | inactive | inactive | – |
